Consider one compound from ChEMBL document CHEMBL1127178, “Nucleosides and nucleotides. 117. A transition-state analogue in purine nucleotide biosynthesis: the design and synthesis of an imidazo[4,5-c]azepine nucleoside” (Bioorg Med Chem Lett, 1993).

The test system of this test is L1210. Description: Cytotoxicity of compound was determined in terms of effective concentration required against murine L1210 cells. It is filed as functional, cell-based. The settings on record: Mus musculus.

Values after ≈ are worked out from the molar mass of the structure shown.

Broadly, the EC50 is the midpoint of the concentration-response curve. `O=C1NC(O)C=Cc2c1ncn2C1O[C@H](CO)C(O)[C@H]1O` (single isomer, unassigned) returned an EC50 of 5 µg/mL (≈ 16.8 µM).
